The source of these data is patent US20020086814A1 (priority 2000, published 2002).

The test system of assay [1] is Vero cells. The class given is cell-based.
Assay [2] has as its system Vero cells. The class given is cell-based. The source holds these as a separate data set.

Turning to chlorin e6 [free Ce6], in assay [1], the “Cell-associated Ce6-specific fluorescence” value is “no detectable Ce6-specific fluorescence”. Further, the “LD50 of photodynamic cell killing, expressed in molar concentration of Ce6” value in assay [2] is 1.2 nmol/mL.
